The source of these data is ChEMBL document CHEMBL3351445, “Potent 11β-hydroxylase inhibitors with inverse metabolic stability in human plasma and hepatic S9 fractions to promote wound healing” (J Med Chem, 2014).

A value given as a limit tells only on which side of the number the result lay.

Data set [1] concerns the target T1, Cytochrome P450 11B2, mitochondrial (Homo sapiens, UniProt P19099).
T1 sequence (P19099 whole entry): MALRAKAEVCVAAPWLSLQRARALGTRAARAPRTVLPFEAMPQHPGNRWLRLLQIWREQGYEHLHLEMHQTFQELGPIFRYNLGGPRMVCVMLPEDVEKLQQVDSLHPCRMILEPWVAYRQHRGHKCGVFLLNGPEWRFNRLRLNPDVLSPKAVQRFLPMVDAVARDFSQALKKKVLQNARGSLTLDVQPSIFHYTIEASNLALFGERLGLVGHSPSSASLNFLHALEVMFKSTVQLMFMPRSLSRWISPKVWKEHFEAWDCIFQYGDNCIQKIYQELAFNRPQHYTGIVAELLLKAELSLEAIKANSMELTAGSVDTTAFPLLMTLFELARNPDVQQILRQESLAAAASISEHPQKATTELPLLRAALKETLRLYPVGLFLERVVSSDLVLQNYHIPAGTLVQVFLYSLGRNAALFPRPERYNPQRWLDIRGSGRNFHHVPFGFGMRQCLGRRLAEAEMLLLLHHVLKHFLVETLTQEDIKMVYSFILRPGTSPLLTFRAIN
Briefly: Inhibition of human CYP11B2 expressed in hamster V79MZh cells using [1,2-3H]-11-deoxycorticosterone as substrate.

Data set [2] has as its target T2, Cytochrome P450 11B1, mitochondrial (Homo sapiens, UniProt P15538).
T2 sequence (P15538 whole entry): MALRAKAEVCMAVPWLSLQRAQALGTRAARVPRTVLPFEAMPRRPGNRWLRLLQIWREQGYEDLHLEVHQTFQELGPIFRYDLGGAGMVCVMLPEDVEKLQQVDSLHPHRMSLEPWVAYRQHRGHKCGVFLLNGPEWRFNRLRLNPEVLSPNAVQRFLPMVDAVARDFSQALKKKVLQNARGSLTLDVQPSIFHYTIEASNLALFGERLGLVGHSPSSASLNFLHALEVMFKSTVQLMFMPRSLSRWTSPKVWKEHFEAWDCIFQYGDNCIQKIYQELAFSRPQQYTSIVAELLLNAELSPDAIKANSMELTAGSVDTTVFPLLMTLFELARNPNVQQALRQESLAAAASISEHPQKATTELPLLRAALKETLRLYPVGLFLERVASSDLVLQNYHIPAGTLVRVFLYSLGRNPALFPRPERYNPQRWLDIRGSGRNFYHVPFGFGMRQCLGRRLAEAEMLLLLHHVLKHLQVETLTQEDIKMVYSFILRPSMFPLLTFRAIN
Briefly: Inhibition of human CYP11B1 expressed in hamster V79MZh cells using [1,2-3H]-11-deoxycorticosterone as substrate.

The target of the next data set is T3, CYP17 (Homo sapiens, UniProt P05093).
T3 sequence (P05093 whole entry): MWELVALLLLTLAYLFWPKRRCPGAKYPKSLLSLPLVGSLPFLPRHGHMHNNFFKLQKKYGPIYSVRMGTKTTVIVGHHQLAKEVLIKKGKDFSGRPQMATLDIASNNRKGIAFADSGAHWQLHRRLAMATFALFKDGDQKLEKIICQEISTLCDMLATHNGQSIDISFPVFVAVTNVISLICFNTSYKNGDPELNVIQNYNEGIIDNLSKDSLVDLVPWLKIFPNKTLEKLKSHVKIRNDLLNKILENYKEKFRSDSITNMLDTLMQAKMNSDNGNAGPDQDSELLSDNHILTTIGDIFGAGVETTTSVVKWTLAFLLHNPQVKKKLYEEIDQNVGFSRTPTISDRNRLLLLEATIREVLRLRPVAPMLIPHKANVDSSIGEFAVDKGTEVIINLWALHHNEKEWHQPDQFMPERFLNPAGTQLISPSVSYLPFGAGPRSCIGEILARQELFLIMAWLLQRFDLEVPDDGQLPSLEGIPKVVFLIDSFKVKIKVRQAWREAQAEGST
The data set is described as follows: Inhibition of human CYP17 expressed in Escherichia coli using progesterone as substrate at 2 uM. Particulars: probe progesterone.

The test system of data set [3] is V79MZh. Briefly: Selectivity ratio of IC50 for human CYP17 expressed in Escherichia coli to IC50 for human CYP11B1 expressed in hamster V79MZh cells.
In data set [4] the test system is V79MZh. Briefly: Selectivity ratio of IC50 for human placental CYP19 to IC50 for human CYP11B1 expressed in hamster V79MZh cells. The class given is cell-based.
The next data set has as its target T4, CYP19 (aromatase) (Homo sapiens, UniProt P11511).
T4 sequence (P11511 whole entry): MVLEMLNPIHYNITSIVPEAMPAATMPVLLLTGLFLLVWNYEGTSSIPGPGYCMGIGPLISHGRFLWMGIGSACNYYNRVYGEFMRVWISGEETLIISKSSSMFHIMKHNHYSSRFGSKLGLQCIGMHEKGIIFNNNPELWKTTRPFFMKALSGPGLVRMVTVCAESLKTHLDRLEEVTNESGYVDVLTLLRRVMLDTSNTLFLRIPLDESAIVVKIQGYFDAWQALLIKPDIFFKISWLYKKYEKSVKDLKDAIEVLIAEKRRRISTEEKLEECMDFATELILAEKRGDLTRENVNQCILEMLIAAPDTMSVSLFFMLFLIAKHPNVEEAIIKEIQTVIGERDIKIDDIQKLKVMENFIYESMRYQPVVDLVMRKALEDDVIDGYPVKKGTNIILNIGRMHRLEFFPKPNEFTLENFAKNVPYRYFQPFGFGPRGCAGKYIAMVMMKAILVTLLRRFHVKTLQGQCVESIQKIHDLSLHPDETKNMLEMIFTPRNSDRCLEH
The data set is described as follows: Inhibition of human placental CYP19 using [1beta-3H]androstenedione as substrate at 2 uM by 3H2O-method. Particulars: human placental CYP19, probe [1beta-3H]androstenedione.

Data set [5] in a line: Half life in human liver S9 fraction by LC-MS/MS analysis. The class given is ADME, subcellular.
Data set [6] in a line: Half life in human plasma by LC-MS/MS analysis. The class given is ADME, cell-free.
The test system of data set [7] is Salmonella typhimurium. The data set is described as follows: Mutagenicity in Salmonella typhimurium TA7001/7002/7003/7004/7005/7006 up to 100 uM by Ames II assay in presence of S9 fraction. It is filed as toxicity, organism-based. Conditions: salmonella enterica subsp. enterica serovar typhimurium.
Data set [8] deals with Salmonella typhimurium. Briefly: Mutagenicity in Salmonella typhimurium TA7001/7002/7003/7004/7005/7006 up to 100 uM by Ames II assay. The class given is toxicity, organism-based. Conditions: salmonella enterica subsp. enterica serovar typhimurium.
Data set [9] has as its system Salmonella typhimurium. The data set is described as follows: Mutagenicity in Salmonella typhimurium TA98 up to 100 uM by Ames II assay in presence of S9 fraction. Conditions: salmonella enterica subsp. enterica serovar typhimurium. It is filed as toxicity, organism-based.
In data set [10] the test system is Salmonella typhimurium. Briefly: Mutagenicity in Salmonella typhimurium TA98 up to 100 uM by Ames II assay. It is filed as toxicity, organism-based. Conditions: salmonella enterica subsp. enterica serovar typhimurium.

In the case of `COc1cccc(S(=O)(=O)N(C)c2ccc(-c3cccnc3)cc2)c1`, the IC50 in data set [1] amounted to 239 nM; in data set [2] it was 68 nM.

As to `O=S(=O)(c1cccc(OC(F)(F)F)c1)N1CCCc2cc(-c3cccnc3)ccc21`, the results for the IC50 in [1] and in data set [2] were 322 nM and 382 nM, respectively.

With `COc1ccc(S(=O)(=O)N2CCCc3cc(-c4cccnc4)ccc32)cc1`, the IC50 in [1] was determined as 519 nM; in data set [2], 334 nM.

`O=S(=O)(C1CCCCC1)N1CCCc2cc(-c3cccnc3)ccc21` had an IC50 in data set [2] of 1170 nM.

For `O=S(=O)(c1ccc(C(F)(F)F)cc1)N1CCCc2cc(-c3cccnc3)ccc21`, half-maximal inhibition in data set [2] (IC50) required 1220 nM.

In the case of `COc1cccc(S(=O)(=O)N2CCCc3cc(-c4ccncc4)ccc32)c1`, the concentration for half-maximal inhibition (IC50) in [2] is more than 5000 nM.

For the compound `Cc1cccc(S(=O)(=O)N2CCCc3cc(-c4cccnc4)ccc32)c1`, the inhibition at 2 µM against CYP17 turned out to be 9%; at CYP19 (aromatase) it was 29%. Further, the Ratio IC50 in the data set with V79MZh [3] and with V79MZh [4] was more than 60 each time. Further, the 50% inhibitory concentration (IC50) in data set [1] amounted to 205 nM; in data set [2] it was 26 nM.

With `O=S(=O)(c1ccc2ccccc2c1)N1CCCc2cc(-c3cccnc3)ccc21`, in data set [2], the IC50 amounted to 663 nM.

As to `COc1cccc(S(=O)(=O)N2CCCc3cc(-c4cccnc4)ccc32)c1`, the inhibition at 2 µM on CYP17 came to 11%; against CYP19 (aromatase), 32%. Also, the Ratio IC50 in the data set with V79MZh [3] and in the data set on V79MZh [4] was more than 60 in each case. Besides, the IC50 in [1] stood at 85 nM; in data set [2] it was 28 nM.

`CC(C)(C(=O)c1cccnc1)c1cccnc1` [METYRAPONE] yielded a half-life in data set [5] of 49 min.

In the case of `O=S(=O)(c1ccc(Cl)cc1)N1CCCc2cc(-c3cccnc3)ccc21`, the values for the IC50 in [1] and in [2] were 469 nM and 137 nM, respectively.

Consider `N#Cc1cccc(S(=O)(=O)N2CCCc3cc(-c4cccnc4)ccc32)c1`, for which the results for the half-inhibitory concentration (IC50) in data set [1] and in data set [2] were 429 nM and 65 nM, respectively.

With `O=S(=O)(c1cccc(C(F)(F)F)c1)N1CCCc2cc(-c3cccnc3)ccc21`, the IC50 in data set [1] is 607 nM; in data set [2], 309 nM.

Take `COc1cccc(S(=O)(=O)Nc2ccc(-c3cccnc3)cc2)c1`: the IC50 in [1] came out at 850 nM; in data set [2] it was 188 nM.

As for `O=S(=O)(c1ccccc1)N1CCCc2cc(-c3cccnc3)ccc21`, the half-inhibitory concentration (IC50) in data set [1] was determined as 295 nM; in [2], 65 nM.

For the compound `O=S(=O)(c1cccc(F)c1)N1CCc2cc(-c3cccnc3)ccc21`, the concentration for half-maximal inhibition (IC50) was 850 nM in data set [1] and 327 nM in data set [2].

On to `COc1cccc(S(=O)(=O)N2CCCc3cc(Cc4ccncc4)ccc32)c1`, for which the values for the inhibition at 2 µM against CYP17 and against CYP19 (aromatase) were 14% and 88%, respectively. Also, the Ratio IC50 in the data set on V79MZh [3] and with V79MZh [4] was more than 60 in each case. For the same compound, the IC50 was found to be 5 nM in [1] and 6 nM in data set [2].

On to `Cc1ccc(S(=O)(=O)N2CCCc3cc(-c4cccnc4)ccc32)cc1`, for which the half-maximal inhibitory concentration (IC50) was 555 nM in [1] and 278 nM in data set [2].

Regarding `O=S(=O)(c1cccc(F)c1)N1CCCc2cc(-c3cccnc3)ccc21`, the half-inhibitory concentration (IC50) in data set [1] is 196 nM; in [2], 71 nM.

With `O=S(=O)(c1cccc(Cl)c1)N1CCCc2cc(-c3cccnc3)ccc21`, the results for the IC50 in data set [1] and in data set [2] were 344 nM and 62 nM, respectively.

For the compound `COc1cccc(S(=O)(=O)N2CCc3cc(-c4ccncc4)cnc32)c1`, half-maximal inhibition in data set [2] (IC50) was put at 1750 nM.

As for `N#Cc1ccc(S(=O)(=O)N2CCCc3cc(-c4cccnc4)ccc32)cc1`, the IC50 in [1] came to 557 nM; in data set [2] it was 114 nM.

Turning to `O=S(=O)(c1cccs1)N1CCCc2cc(-c3cccnc3)ccc21`, the values for the IC50 in data set [1] and in data set [2] were 259 nM and 60 nM, respectively.

In [2], `COc1cccc(S(=O)(=O)N2CCc3cc(-c4cccnc4)cnc32)c1` gave a half-inhibitory concentration (IC50) of 587 nM. This counts as sub-micromolar.

Take `COc1cccc(S(=O)(=O)N2CCc3cc(-c4cccnc4)ccc32)c1`: the concentration for half-maximal inhibition (IC50) in data set [1] amounted to 251 nM; in data set [2], 111 nM.

In data set [2], `COc1cccc(S(=O)(=O)N(Cc2ccccc2)c2ccc(-c3cccnc3)cc2)c1` showed an IC50 of 2000 nM.

Take `COc1cccc(S(=O)(=O)N2CCCc3cc(Cc4cccnc4)ccc32)c1`: the half-life was 16 min in data set [5] and more than 150 min in data set [6]. Besides, the inhibition at 2 µM against CYP17 came to 9%; at CYP19 (aromatase), 26%. Besides, the Ratio IC50 in the data set with V79MZh [3] and in the data set on V79MZh [4] was more than 60 each time. In addition, the Activity result in the data set on Salmonella typhimurium [7], with Salmonella typhimurium [8], in the data set on Salmonella typhimurium [9] and in the data set on Salmonella typhimurium [10] was “Non-toxic” in each case. In addition, the half-maximal inhibitory concentration (IC50) in [1] stood at 8 nM; in [2] it was 5 nM.

As to `O=S(=O)(c1ccc(F)cc1)N1CCCc2cc(-c3cccnc3)ccc21`, the results for the concentration for half-maximal inhibition (IC50) in data set [1] and in [2] were 260 nM and 49 nM, respectively.

In turn, `O=S(=O)(c1ccc(OC(F)(F)F)cc1)N1CCCc2cc(-c3cccnc3)ccc21` returned a half-inhibitory concentration (IC50) in [2] of 929 nM.
